In patent publication US20230022157A1 (Achillion Pharmaceuticals, Inc., priority 2018, published 2023):

molecular target: T1, Human Factor D (Homo sapiens, UniProt P00746); experiment: Human Factor D Assay; type: biochemical; details: Human Factor D 80 nM, substrate Z-L-Lys-SBzl, assay of Example 3; read-out: IC50 (Stars)
T1 construct: purified from human serum; purchased Complement Technology, Inc; host or cells: human serum (natural protein, not recombinant)
How it was run: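 Serum-purified human factor D (80 nM final) preincubated 5 min at room temperature with test compound in 50 mM Tris, 1M NaCl, pH 7.5. Z-L-Lys-SBzl substrate and DTNB then added, each at 100 μM final. IC50 from nonlinear regression of reaction rate against compound concentration.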

T1 sequence (P00746 26-253): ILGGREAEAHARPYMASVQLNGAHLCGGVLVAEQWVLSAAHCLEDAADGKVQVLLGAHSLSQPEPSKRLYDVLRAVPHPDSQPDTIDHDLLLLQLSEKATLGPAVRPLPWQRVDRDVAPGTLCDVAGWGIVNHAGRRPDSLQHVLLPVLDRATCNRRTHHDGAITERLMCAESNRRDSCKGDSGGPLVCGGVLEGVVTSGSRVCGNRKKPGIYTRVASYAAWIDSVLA

IC50 | SMILES
< 1000 nM | CC(=O)c1nn(CC(=O)N2[C@H](C(=O)Nc3nc(Br)ccc3C)C[C@@]3(C)C[C@@H]23)c2ccc(-c3cnc(CO)nc3)cc12 [Compound 30, (1R,3S,5R)-2-(2-(3-acetyl-5-(2-(hydroxymethyl)pyrimidin-5-yl)-1H-indazol-1-yl)acetyl)-N-(6-bromo-3-methylpyridin-2-yl)-5-methyl-2-azabicyclo[3.1.0]hexane-3-carboxamide]
1000 to 10000 nM | CC(=O)c1nn(CC(=O)N2[C@H](C(=O)NCCc3ccncc3)C[C@@]3(C)C[C@@H]23)c2c(C)cc(-c3cnc(C)nc3)cc12 [Compound 8, (1R,3S,5R)-2-(2-(3-Acetyl-7-methyl-5-(2-methylpyrimidin-5-yl)-1H-indazol-1-yl)acetyl)-5-methyl-N-(2-(pyridin-4-yl)ethyl)-2-azabicyclo[3.1.0]hexane-3-carboxamide]
< 1000 nM | CC(=O)c1nn(CC(=O)N2[C@H](C(=O)Nc3cccc(Br)n3)C[C@@]3(C)C[C@@H]23)c2c3c(c(-c4cnc(C)nc4)cc12)CCCO3 [Compound 19, (1R,3S,5R)-2-(2-(3-acetyl-5-(2-methylpyrimidin-5-yl)-7,8-dihydropyran[3,2-g]indazol-1(6H)-yl)acetyl)-N-(6-bromopyridin-2-yl)-5-methyl-2-azabicyclo[3.1.0] hexane-3-carboxamide]
< 1000 nM | CC(=O)c1nn(CC(=O)N2[C@H](C(=O)Nc3cccc(C(F)(F)F)c3F)C[C@@]3(C)C[C@@H]23)c2cnc(-c3cnc(C)nc3)cc12 [Compound 23, (1R,3S,5R)-2-(2-(3-Acetyl-5-(2-methylpyrimidin-5-yl)-1H-pyrazolo[3,4-C]pyridine-1-yl)acetly)-N-(2-fluoro-3-(trifluoromethyl)phenyl)-5-methyl-2-azabicyclo[3.1.0]hexane-3-carboxamide]

same assay, conditions: Human Factor D 80 nM, substrate Z-L-Lys-SBzl; Table 2; read-out: IC50 (Stars)

IC50 | SMILES
< 1000 nM | CC(=O)c1nn(CC(=O)N2[C@H]3CC[C@H](C3)[C@H]2C(=O)Nc2nc(C(F)(F)F)ccc2C)c2c(C)cc(-c3cncc(C4(C(=O)O)CC4)c3)cc12 [Compound 128, 1-(5-(3-Acetyl-7-methyl-1-(2-((1S,3S,4R)-3-((3-methyl-6-(trifluoromethyl)pyridin-2-yl)carbamoyl)-2-azabicyclo[2.2.1]heptan-2-yl)-2-oxoethyl)-1H-indazol-5-yl)pyridin-3-yl)cyclopropane-1-carboxylic acid]
< 1000 nM | CC(=O)c1cn(CC(=O)N2[C@H](C(=O)Nc3nc(C(F)(F)F)ccc3C)C[C@@]3(C)C[C@@H]23)c2cc(F)c(-c3cnc4cc(C)nn4c3)cc12 [Compound 230, (1R,3S,5R)-2-(2-(3-acetyl-6-fluoro-5-(2-methylpyrazolo[1,5-a]pyrimidin-6-yl)-1H-indol-1-yl)acetyl)-5-methyl-N-(3-methyl-6-(trifluoromethyl)pyridin-2-yl)-2-azabicyclo[3.1.0]hexane-3-carboxamide]
< 1000 nM | CC(=O)c1nn(CC(=O)N2[C@H]3CC[C@H](C3)[C@H]2C(=O)Nc2nc(Br)c(F)cc2C)c2c(C)cc(-c3cnc(C)nc3)cc12 [Compound 101, (1S,3S,4R)-2-(2-(3-Acetyl-7-methyl-5-(2-methylpyrimidin-5-yl)-1H-indazol-1-yl)acetyl)-N-(6-bromo-5-fluoro-3-methylpyridin-2-yl)-2-azabicyclo[2.2.1]heptane-3-carboxamide]
< 1000 nM | CC(=O)c1nn(CC(=O)N2C[C@H]3C[C@H]3[C@H]2C(=O)Nc2cncc(Br)n2)c2c(C)cc(-c3cnc(CO)nc3)cc12 [Compound 74, (1R,2S,5S)-3-(2-(3-acetyl-5-(2-(hydroxymethyl)pyrimidin-5-yl)-7-methyl-11H-indazol-1-yl)acetyl)-N-(6-bromopyrazin-2-yl)-3-azabicyclo[3.1.0]hexane-2-carboxamide]
< 1000 nM | CC(=O)c1cn(CC(=O)N2[C@H](C(=O)Nc3nc(Br)ccc3C)C[C@@]3(C)C[C@@H]23)c2c(C)c(F)c(-c3cnc(C)nc3)cc12 [Compound 240, (1R,3S,5R)-2-(2-(3-acetyl-6-fluoro-7-methyl-5-(2-methylpyrimidin-5-yl)-1H-indol-1-yl)acetyl)-N-(6-bromo-3-methylpyridin-2-yl)-5-methyl-2-azabicyclo[3.1.0]hexane-3-carboxamide]
< 1000 nM | C=CCC(Cc1ccccc1)NC(=O)[C@@H]1C[C@@]2(C)C[C@H]2N1C(=O)Cn1nc(C(C)=O)c2cc(-c3cnc(C)nc3)cc(C)c21 (stereo partly drawn) [Compound 174, (1R,3S,5R)-2-{2-[3-acetyl-7-methyl-5-(2-methylpyrimidin-5-yl)indazol-1-yl]acetyl}-5-methyl-N-(1-phenylpent-4-en-2-yl)-2-azabicyclo[3.1.0]hexane-3-carboxamide]
< 1000 nM | CC(=O)c1nn(CC(=O)N2[C@H](C(=O)NC3CCCC4(C3)OCCO4)C[C@@]3(C)C[C@@H]23)c2c(C)cc(-c3cnc(C)nc3)cc12 (stereo partly drawn) [Compound 137, (1R,3S,5R)-2-{2-[3-acetyl-7-methyl-5-(2-methylpyrimidin-5-yl)indazol-1-yl]acetyl}-N-{1,4-dioxaspiro[4.5]decan-7-yl}-5-methyl-2-azabicyclo[3.1.0]hexane-3-carboxamide]
< 1000 nM | CC(=O)c1nn(CC(=O)N2[C@H](C(=O)NC(C)c3cccnn3)C[C@@]3(C)C[C@@H]23)c2c(C)cc(-c3cnc(C)nc3)cc12 (stereo partly drawn) [Compound 189, (1R,3S,5R)-2-{2-[3-acetyl-7-methyl-5-(2-methylpyrimidin-5-yl)indazol-1-yl]acetyl}-5-methyl-N-[1-(pyridazin-3-yl)ethyl]-2-azabicyclo[3.1.0]hexane-3-carboxamide]
< 1000 nM | CC(=O)c1nn(CC(=O)N2[C@H](C(=O)N[C@H](C)C3CCCCC3)C[C@@]3(C)C[C@@H]23)c2c(C)cc(-c3cnc(C)nc3)cc12 [Compound 70, (1R,3S,5R)-2-(2-(3-acetyl-7-methyl-5-(2-methylpyrimidin-5-yl)-1H-indazol-1-yl)acetyl)-N—((R)-1-cyclohexylethyl)-5-methyl-2-azabicyclo[3.1.0]hexane-3-carboxamide]
< 1000 nM | CC(=O)c1cn(CC(=O)N2C[C@H]3C[C@H]3[C@H]2C(=O)Nc2nc(Br)c(F)cc2C)c2c(C)cc(-c3cnc(CO)nc3)cc12 [Compound 83, (1R,2S,5S)-3-(2-(3-acetyl-5-(2-(hydroxymethyl)pyrimidin-5-yl)-7-methyl-11H-indol-1-yl)acetyl)-N-(6-bromo-5-fluoro-3-methylpyridin-2-yl)-3-azabicyclo[3.1.0]hexane-2-carboxamide]

Further lines, the molecule ahead of its results:

SMILES | IC50
CC(=O)c1nn(CC(=O)N2[C@H](C(=O)Nc3nc(C(F)(F)F)ccc3C)C[C@@]3(C)C[C@@H]23)c2c(C)cc(-c3cnc(CO)nc3)cc12 [Compound 54, (1R,3S,5R)-2-(2-(3-acetyl-5-(2-(hydroxymethyl)pyrimidin-5-yl)-7-methyl-1H-indazol-1-yl)acetyl)-5-methyl-N-(3-methyl-6-(trifluoromethyl)pyridin-2-yl)-2-azabicyclo[3.1.0]hexane-3-carboxamide] | < 1000 nM
CC(=O)c1cn(CC(=O)N2[C@H](C(=O)Nc3nc(C(F)(F)F)ccc3C)C[C@@]3(C)C[C@@H]23)c2c(C)nc(-c3cnc(C)nc3)cc12 [Compound 200, (1R,3S,5R)-2-{2-[3-acetyl-7-methyl-5-(2-methylpyrimidin-5-yl)pyrrolo[2,3-c]pyridin-1-yl]acetyl}-5-methyl-N-[3-methyl-6-(trifluoromethyl)pyridin-2-yl]-2-azabicyclo[3.1.0]hexane-3-carboxamide] | < 1000 nM
COC(C)(C)CNC(=O)[C@@H]1C[C@@]2(C)C[C@H]2N1C(=O)Cn1nc(C(C)=O)c2cc(-c3cnc(C)nc3)cc(C)c21 [Compound 87, (1R,3S,5R)-2-{2-[3-acetyl-7-methyl-5-(2-methylpyrimidin-5-yl)indazol-1-yl]acetyl}-N-(2-methoxy-2-methylpropyl)-5-methyl-2-azabicyclo[3.1.0]hexane-3-carboxamide] | < 1000 nM
COC(=O)c1ncc(-c2cc(C)c3c(c2)c(C(C)=O)nn3CC(=O)N2[C@H](C(=O)Nc3nc(Br)c(F)cc3C)C[C@@]3(C)C[C@@H]23)cn1 [Compound 44, Methyl 5-(3-acetyl-1-(2-((1R,3S,5R)-3-((6-bromo-5-fluoro-3-methylpyridin-2-yl)carbamoyl)-5-methyl-2-azabicyclo[3.1.0]hexan-2-yl)-2-oxoethyl)-7-methyl-1H-indazol-5-yl)pyrimidine-2-carboxylate] | < 1000 nM
CC(=O)c1nn(CC(=O)N2[C@H](C(=O)Nc3nc(Br)ccc3C)C[C@@]3(C)C[C@@H]23)c2ccc(-c3cncc(S(N)(=O)=O)c3)cc12 [Compound 71, (1R,3S,5R)-2-(2-(3-Acetyl-5-(5-sulfamoylpyridin-3-yl)-1H-indazol-1-yl)acetyl)-N-(6-bromo-3-methylpyridin-2-yl)-5-methyl-2-azabicyclo[3.1.0]hexane-3-carboxamide] | < 1000 nM
CC(=O)c1nn(CC(=O)N2[C@H](C(=O)Nc3nc(C(F)(F)F)ccc3C)C[C@@]3(C)C[C@@H]23)c2c(C)cc(-c3cnc4c(O)c(C)nn4c3)cc12 [Compound 232, (1R,3S,5R)-2-(2-(3-acetyl-5-(3-hydroxy-2-methylpyrazolo[1,5-a]pyrimidin-6-yl)-7-methyl-1H-indazol-1-yl)acetyl)-5-methyl-N-(3-methyl-6-(trifluoromethyl)pyridin-2-yl)-2-azabicyclo[3.1.0]hexane-3-carboxamide] | < 1000 nM
CC(=O)c1nn(CC(=O)N2[C@H]3CC[C@H](C3)[C@H]2C(=O)Nc2nc(C(F)(F)F)ccc2C)c2c(C)cc(-c3cnc4cc(C)nn4c3)cc12 [Compound 223, (1S,3S,4R)-2-(2-(3-acetyl-7-methyl-5-(2-methylpyrazolo[1,5-a]pyrimidin-6-yl)-1H-indazol-1-yl)acetyl)-N-(3-methyl-6-(trifluoromethyl)pyridin-2-yl)-2-azabicyclo[2.2.1]heptane-3-carboxamide] | < 1000 nM
